In US20120225817A1, “THERAPEUTIC AGENT FOR GASTROINTESTINAL DISEASE” (Santen Pharmaceutical Co., Ltd., priority 2009, published 2012):
Residues, ends and D or L forms follow the SMILES beside them.

System: Caco-2 cells
Test: Effect on migration of gastrointestinal mucosal tissue cells (cut in a confluent Caco-2 cell layer, cell spreading area)
Assay type: cell-based, human
Settings: for Migration of Caco-2 cells (%): 18 hours, control = 100%, mean ± standard error, 8 samples
Procedure: An effect on cell migration was studied by the following method using Caco-2 cells which are a human colon cancer cell line.
In a 24-well plate coated with type IV collagen, Caco-2 cells were seeded at […] cells per well and cultured to confluence in a DMEM medium containing 10% FBS. A cut was formed in the cell layer using a razor blade, and a cell-free region was created with a cotton swab. After washing with a DMEM medium containing 1% FBS, the cells were cultured for 18 hours in the same medium containing each test compound under conditions of 37° C. and 5% CO2. The effect on the migration of Caco-2 cells was studied by taking pictures before adding the test compound and at 18 hours after the addition of the test compound and comparing cell spreading areas in a fixed region at 18 hours after the addition of the test compounds. Further, Caco-2 cells cultured in the same manner in the medium without containing the test compound were used as a control.
The results of the case where a single agent of SSSR was used are shown in Table 1, and the results of the case where SSSR and FGLM-NH2 were used in combination are shown in Table 2. In the tables, the migration of the Caco-2 cells is expressed as a mean and standard error calculated from the results of 8 samples for each test compound by taking the migration of the control cells as a standard (100%). Incidentally, the symbol “★★” indicates a statistical significance at a P value of <0.001 compared to the control.

Row | Migration of Caco-2 cells (%) (FGLM-NH2 20 μM) | Migration of Caco-2 cells (%) (SSSR 10 nM) | Migration of Caco-2 cells (%) (SSSR 30 μM) | Effect on migration of Caco-2 cells (in words) (SSSR trifluoroacetate at 30 μM) | SMILES | Effect on migration of Caco-2 cells (in words) (single agent, FGLM-NH2 trifluoroacetate at 20 μM) | Effect on migration of Caco-2 cells (in words) (single agent, SSSR trifluoroacetate at 10 nM)
1 | 105.9 ± 3.9 | – | – | – | CSCC[C@H](NC(=O)[C@H](CC(C)C)NC(=O)CNC(=O)[C@@H](N)Cc1ccccc1)C(N)=O [FGLM-NH2, Phe-Gly-Leu-Met-NH2] (H-FGLM-NH2; N-terminus assumed) | does not promote the migration of Caco-2 cells | –
2 | – | 109.7 ± 5.1 | 125.0 ± 2.0 | promotes the migration of Caco-2 cells | N=C(N)NCCC[C@H](NC(=O)[C@H](CO)NC(=O)[C@H](CO)NC(=O)[C@@H](N)CO)C(=O)O [SSSR, Ser-Ser-Ser-Arg] (H-SSSR-OH; N-terminus and C-terminus assumed) | – | does not promote the migration of Caco-2 cells
